# In patent US20230085307A1, “PYRIDAZINONE COMPOUND AND HERBICIDE” (NISSAN CHEMICAL CORPORATION, priority 2019, published 2023):
# Legend:
# wild oat [1] = assay: Test Example 5: herbicidal effect by foliage application, plastic box (Table 20, symbol I); format: in vivo, wild oat (Avena fatua); conditions: 320 g/ha, foliage application after 14-day growth, evaluated three weeks after application
# Method in brief: (§1)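 Foliar spray test: emulsion formulation diluted in water to a set application rate, sprayed onto 14-day-old plants raised in diluvial soil at 25° C to 30° C under glass. Both herbicidal effect and crop effect rated visually three weeks later.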
# persian speedwell [2] = assay: Test Example 4: herbicidal effect by soil treatment (Table 19, symbol R); format: in vivo, Persian speedwell (Veronica persica); conditions: amount of applied herbicide 320 g/ha
# Method in brief: (§2)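 Step 1: sow seeds in sterilized diluvial soil, cover ~1.5 cm. Step 2: spray diluted emulsion onto soil surface at predetermined rate. Step 3: greenhouse, 25–30° C, three weeks. Step 4: grade effect on each plant by earlier criteria.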
# chickweed [3] = assay: Test Example 5: herbicidal effect by foliage application, plastic box (Table 20, symbol P); format: in vivo, common chickweed (Stellaria media); conditions: 320 g/ha, foliage application after 14-day growth, evaluated three weeks after application
# Method in brief: as §1
# redroot pigweed [4] = assay: Test Example 4: herbicidal effect by soil treatment (Table 19, symbol N); format: in vivo, redroot pigweed (Amaranthus retroflexus); conditions: amount of applied herbicide 320 g/ha
# Method in brief: as §2
# velvetleaf [5] = assay: Test Example 5: herbicidal effect by foliage application, plastic box (Table 20, symbol M); format: in vivo, velvetleaf (Abutilon theophrasti); conditions: 320 g/ha, foliage application after 14-day growth, evaluated three weeks after application
# Method in brief: as §1
# blackgrass [6] = assay: Test Example 4: herbicidal effect by soil treatment (Table 19, symbol J); format: in vivo, blackgrass (Alopecurus myosuroides); conditions: amount of applied herbicide 320 g/ha
# Method in brief: as §2
# blackgrass [7] = assay: Test Example 5: herbicidal effect by foliage application, plastic box (Table 20, symbol J); format: in vivo, blackgrass (Alopecurus myosuroides); conditions: 320 g/ha, foliage application after 14-day growth, evaluated three weeks after application
# Method in brief: as §1
# southern crabgrass [8] = assay: Test Example 4: herbicidal effect by soil treatment (Table 19, symbol F); format: in vivo, southern crabgrass (Digitaria ciliaris); conditions: amount of applied herbicide 320 g/ha
# Method in brief: as §2
# Italian ryegrass [9] = assay: Test Example 4: herbicidal effect by soil treatment (Table 19, symbol K); format: in vivo, Italian ryegrass (Lolium multiflorum); conditions: amount of applied herbicide 320 g/ha
# Method in brief: as §2
# Italian ryegrass [10] = assay: Test Example 5: herbicidal effect by foliage application, plastic box (Table 20, symbol K); format: in vivo, Italian ryegrass (Lolium multiflorum); conditions: 320 g/ha, foliage application after 14-day growth, evaluated three weeks after application
# Method in brief: as §1
# windgrass [11] = assay: Test Example 5: herbicidal effect by foliage application, plastic box (Table 20, symbol L); format: in vivo, windgrass (Apera spica-venti); conditions: 320 g/ha, foliage application after 14-day growth, evaluated three weeks after application
# Method in brief: as §1
# velvetleaf [12] = assay: Test Example 4: herbicidal effect by soil treatment (Table 19, symbol M); format: in vivo, velvetleaf (Abutilon theophrasti); conditions: amount of applied herbicide 320 g/ha
# Method in brief: as §2
# green foxtail [13] = assay: Test Example 5: herbicidal effect by foliage application, plastic box (Table 20, symbol G); format: in vivo, green foxtail (Setaria viridis); conditions: 320 g/ha, foliage application after 14-day growth, evaluated three weeks after application
# Method in brief: as §1
# windgrass [14] = assay: Test Example 4: herbicidal effect by soil treatment (Table 19, symbol L); format: in vivo, windgrass (Apera spica-venti); conditions: amount of applied herbicide 320 g/ha
# Method in brief: as §2
# barnyard grass [15] = assay: Test Example 3: herbicidal effect by foliage application, Wagner pot (Table 18, symbol H); format: in vivo, barnyard grass (Echinochloa crus-galli); conditions: 320 g/ha
# Method in brief: (§3)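 Plants were sown in alluvial soil held under 0.1–0.5 cm standing water and grown 14 days in a greenhouse at 25–30 °C. An emulsifiable formulation, water-diluted to the set dose, was then sprayed onto the foliage, and effects were scored three weeks later using previously defined criteria.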
# lambsquarters [16] = assay: Test Example 5: herbicidal effect by foliage application, plastic box (Table 20, symbol O); format: in vivo, lambsquarters (Chenopodium album); conditions: 320 g/ha, foliage application after 14-day growth, evaluated three weeks after application
# Method in brief: as §1
# rice flat sedge = assay: Test Example 3: herbicidal effect by foliage application, Wagner pot (Table 18, symbol E); format: in vivo, rice flat sedge (Cyperus iria); conditions: 320 g/ha
# Method in brief: as §3
# lambsquarters [17] = assay: Test Example 4: herbicidal effect by soil treatment (Table 19, symbol O); format: in vivo, lambsquarters (Chenopodium album); conditions: amount of applied herbicide 320 g/ha
# Method in brief: as §2
# redroot pigweed [18] = assay: Test Example 5: herbicidal effect by foliage application, plastic box (Table 20, symbol N); format: in vivo, redroot pigweed (Amaranthus retroflexus); conditions: 320 g/ha, foliage application after 14-day growth, evaluated three weeks after application
# Method in brief: as §1
# chickweed [19] = assay: Test Example 4: herbicidal effect by soil treatment (Table 19, symbol P); format: in vivo, common chickweed (Stellaria media); conditions: amount of applied herbicide 320 g/ha
# Method in brief: as §2
# persian speedwell [20] = assay: Test Example 5: herbicidal effect by foliage application, plastic box (Table 20, symbol R); format: in vivo, Persian speedwell (Veronica persica); conditions: 320 g/ha, foliage application after 14-day growth, evaluated three weeks after application
# Method in brief: as §1
# barnyard grass [21] = assay: Test Example 5: herbicidal effect by foliage application, plastic box (Table 20, symbol H); format: in vivo, barnyard grass (Echinochloa crus-galli); conditions: 320 g/ha, foliage application after 14-day growth, evaluated three weeks after application
# Method in brief: as §1
# southern crabgrass [22] = assay: Test Example 5: herbicidal effect by foliage application, plastic box (Table 20, symbol F); format: in vivo, southern crabgrass (Digitaria ciliaris); conditions: 320 g/ha, foliage application after 14-day growth, evaluated three weeks after application
# Method in brief: as §1
# Chinese sprangletop = assay: Test Example 3: herbicidal effect by foliage application, Wagner pot (Table 18, symbol D); format: in vivo, chinese sprangletop (Leptochloa chinensis); conditions: 320 g/ha
# Method in brief: as §3
# green foxtail [23] = assay: Test Example 4: herbicidal effect by soil treatment (Table 19, symbol G); format: in vivo, green foxtail (Setaria viridis); conditions: amount of applied herbicide 320 g/ha
# Method in brief: as §2
# wild oat [24] = assay: Test Example 4: herbicidal effect by soil treatment (Table 19, symbol I); format: in vivo, wild oat (Avena fatua); conditions: amount of applied herbicide 320 g/ha
# Method in brief: as §2
# barnyard grass [25] = assay: Test Example 4: herbicidal effect by soil treatment (Table 19, symbol H); format: in vivo, barnyard grass (Echinochloa crus-galli); conditions: amount of applied herbicide 320 g/ha
# Method in brief: as §2
Structure (SMILES),herbicidal effect on I: wild oat (evaluation grade 0-5) (wild oat [1]),"Herbicidal effect by soil treatment, R: persian speedwell (persian speedwell [2])",herbicidal effect on P: chickweed (evaluation grade 0-5) (chickweed [3]),"Herbicidal effect by soil treatment, N: redroot pigweed (redroot pigweed [4])",herbicidal effect on M: velvetleaf (evaluation grade 0-5) (velvetleaf [5]),"Herbicidal effect by soil treatment, J: blackgrass (blackgrass [6])",herbicidal effect on J: blackgrass (evaluation grade 0-5) (blackgrass [7]),"Herbicidal effect by soil treatment, F: southern crabgrass (southern crabgrass [8])","Herbicidal effect by soil treatment, K: Italian ryegrass (Italian ryegrass [9])",herbicidal effect on K: Italian ryegrass (evaluation grade 0-5) (Italian ryegrass [10]),herbicidal effect on L: windgrass (evaluation grade 0-5) (windgrass [11]),"Herbicidal effect by soil treatment, M: velvetleaf (velvetleaf [12])",herbicidal effect on G: green foxtail (evaluation grade 0-5) (green foxtail [13]),"Herbicidal effect by soil treatment, L: windgrass (windgrass [14])",herbicidal effect on barnyard grass (H) (barnyard grass [15]),herbicidal effect on O: lambsquarters (evaluation grade 0-5) (lambsquarters [16]),herbicidal effect on rice flat sedge (E) (rice flat sedge),"Herbicidal effect by soil treatment, O: lambsquarters (lambsquarters [17])",herbicidal effect on N: redroot pigweed (evaluation grade 0-5) (redroot pigweed [18]),"Herbicidal effect by soil treatment, P: chickweed (chickweed [19])",other results
COc1cc(F)ccc1-c1sc2c(F)cccc2c1-c1c(O)c(C)nn(C)c1=O [4-011],0 (Herbicidal rate of 5% or less (almost no effect)),0 (Herbicidal rate of 5% or less (almost no effect)),5 (Herbicidal rate of 90% or more (almost completely withered)),2 (Herbicidal rate of 20% or more and less than 40%),3 (Herbicidal rate of 40% or more and less than 70%),0 (Herbicidal rate of 5% or less (almost no effect)),3 (Herbicidal rate of 40% or more and less than 70%),0 (Herbicidal rate of 5% or less (almost no effect)),0 (Herbicidal rate of 5% or less (almost no effect)),3 (Herbicidal rate of 40% or more and less than 70%),3 (Herbicidal rate of 40% or more and less than 70%),0 (Herbicidal rate of 5% or less (almost no effect)),5 (Herbicidal rate of 90% or more (almost completely withered)),0 (Herbicidal rate of 5% or less (almost no effect)),4 (Herbicidal rate of 70% or more and less than 90%),3 (Herbicidal rate of 40% or more and less than 70%),5 (Herbicidal rate of 90% or more (almost completely withered)),3 (Herbicidal rate of 40% or more and less than 70%),3 (Herbicidal rate of 40% or more and less than 70%),3 (Herbicidal rate of 40% or more and less than 70%),"herbicidal effect on R: persian speedwell (evaluation grade 0-5) (persian speedwell [20]): 5 (Herbicidal rate of 90% or more (almost completely withered)); herbicidal effect on H: barnyard grass (evaluation grade 0-5) (barnyard grass [21]): 3 (Herbicidal rate of 40% or more and less than 70%); herbicidal effect on F: southern crabgrass (evaluation grade 0-5) (southern crabgrass [22]): 2 (Herbicidal rate of 20% or more and less than 40%); herbicidal effect on Chinese sprangletop (D) (Chinese sprangletop): 3 (Herbicidal rate of 40% or more and less than 70%); Herbicidal effect by soil treatment, G: green foxtail (green foxtail [23]): 3 (Herbicidal rate of 40% or more and less than 70%); Herbicidal effect by soil treatment, I: wild oat (wild oat [24]): 0 (Herbicidal rate of 5% or less (almost no effect)); Herbicidal effect by soil treatment, H: barnyard grass (barnyard grass [25]): 3 (Herbicidal rate of 40% or more and less than 70%)"
CCCC(=O)Oc1c(C)nn(C)c(=O)c1-c1c(-c2ccc(F)cc2OC)sc2c(Cl)cccc12 [4-034],0 (Herbicidal rate of 5% or less (almost no effect)),0 (Herbicidal rate of 5% or less (almost no effect)),5 (Herbicidal rate of 90% or more (almost completely withered)),4 (Herbicidal rate of 70% or more and less than 90%),3 (Herbicidal rate of 40% or more and less than 70%),0 (Herbicidal rate of 5% or less (almost no effect)),0 (Herbicidal rate of 5% or less (almost no effect)),3 (Herbicidal rate of 40% or more and less than 70%),0 (Herbicidal rate of 5% or less (almost no effect)),0 (Herbicidal rate of 5% or less (almost no effect)),5 (Herbicidal rate of 90% or more (almost completely withered)),2 (Herbicidal rate of 20% or more and less than 40%),3 (Herbicidal rate of 40% or more and less than 70%),0 (Herbicidal rate of 5% or less (almost no effect)),4 (Herbicidal rate of 70% or more and less than 90%),0 (Herbicidal rate of 5% or less (almost no effect)),4 (Herbicidal rate of 70% or more and less than 90%),3 (Herbicidal rate of 40% or more and less than 70%),1 (Herbicidal rate of 5% or more and less than 20%),0 (Herbicidal rate of 5% or less (almost no effect)),"herbicidal effect on R: persian speedwell (evaluation grade 0-5) (persian speedwell [20]): 4 (Herbicidal rate of 70% or more and less than 90%); herbicidal effect on H: barnyard grass (evaluation grade 0-5) (barnyard grass [21]): 3 (Herbicidal rate of 40% or more and less than 70%); herbicidal effect on F: southern crabgrass (evaluation grade 0-5) (southern crabgrass [22]): 0 (Herbicidal rate of 5% or less (almost no effect)); herbicidal effect on Chinese sprangletop (D) (Chinese sprangletop): 5 (Herbicidal rate of 90% or more (almost completely withered)); Herbicidal effect by soil treatment, G: green foxtail (green foxtail [23]): 4 (Herbicidal rate of 70% or more and less than 90%); Herbicidal effect by soil treatment, I: wild oat (wild oat [24]): 0 (Herbicidal rate of 5% or less (almost no effect)); Herbicidal effect by soil treatment, H: barnyard grass (barnyard grass [25]): 3 (Herbicidal rate of 40% or more and less than 70%)"
